The values that follow come from US12185723B2, “Herbicidally active 3-phenylisoxazoline-5-carboxamides of s-containing cyclopentenylcarboxylic esters” (Bayer Aktiengesellschaft, priority 2019, dated 2025).

Holding throughout (format): in vivo
Experiment [1] deals with Abutilon theophrasti. Description: Post-emergence herbicidal action against ABUTH. Particulars: visual rating about 3 weeks after treatment. On the procedure:
(§1) Post-Emergence Herbicidal Action Against Harmful Plants and Crop Plant Compatibility Seeds of monocotyledonous and dicotyledonous weeds and crop plants are placed in sandy loam in plastic or wood-fibre pots, covered with soil and cultivated in a greenhouse under controlled growth conditions. 2 to 3 weeks after sowing, the test plants are treated at the one-leaf stage. The compounds of the invention, formulated in the form of wettable powders (WP) or as emulsion concentrates (EC), are then sprayed onto the green parts of the plants as aqueous suspension or emulsion with addition of 0.5% additive at a water application rate of 600 l/ha (converted). After the test plants have been kept in the greenhouse under optimum growth conditions for about 3 weeks, the activity of the preparations is rated visually in comparison to untreated controls. For example, 100% activity=the plants have died, 0% activity=like control plants. [table]

For experiment [2], the system named is Alopecurus myosuroides. The experiment can be described thus: Post-emergence herbicidal action against ALOMY. Particulars: visual rating about 3 weeks after treatment. The method, boiled down: (§2)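 Sow in sandy loam; greenhouse; spray at one-leaf stage (2–3 wk after sowing). WP/EC formulation, 0.5% additive, 600 l/ha water. Visual rating ~3 wk later vs untreated; 100% = dead.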

The test system of experiment [3] is DIGSA. Description: Post-emergence herbicidal action against DIGSA. Conditions: visual rating about 3 weeks after treatment. The method, boiled down:
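Greenhouse-grown plants sprayed at one-leaf stage (2–3 weeks after sowing) with WP or EC formulations as aqueous suspension/emulsion plus 0.5% additive, 600 l/ha water. Activity rated visually about 3 weeks later versus untreated controls, 100% = plants dead, 0% = like controls.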

Experiment [4] relates to Setaria viridis. The experiment can be described thus: Post-emergence herbicidal action against SETVI. Particulars: visual rating about 3 weeks after treatment. The method, boiled down:
as §2

Experiment [5] deals with Pharbitis purpurea. Description: Post-emergence herbicidal action against PHBPU. Conditions: 20 g a.i./ha. The procedure, abridged: as §2
The subject of experiment [6] is Lolium rigidum. Description: Post-emergence herbicidal action against LOLRI. Particulars: visual rating about 3 weeks after treatment. The procedure, abridged:
as §2

Experiment [7] concerns Echinochloa crus-galli. The experiment can be described thus: Post-emergence herbicidal action against ECHCG. Conditions: visual rating about 3 weeks after treatment. The method, boiled down: as §2
In experiment [8] the test system is Avena fatua. The experiment can be described thus: Post-emergence herbicidal action against AVEFA. Conditions: visual rating about 3 weeks after treatment. The procedure, abridged:
as §2

In experiment [9] the test system is Polygonum convolvulus. The experiment can be described thus: Post-emergence herbicidal action against POLCO. The method, boiled down: as §2
Experiment [10] relates to Veronica persica. The experiment can be described thus: Post-emergence herbicidal action against VERPE. The procedure, abridged:
as §2

Experiment [11] deals with Amaranthus retroflexus. Description: Post-emergence herbicidal action against AMARE. The method, boiled down:
as §2

The test system of experiment [12] is Matricaria inodora. Description: Post-emergence herbicidal action against MATIN. Particulars: 20 g a.i./ha. On the procedure:
as §1

Experiment [13] deals with Viola tricolor. Description: Post-emergence herbicidal action against VIOTR. On the procedure:
as §1

Experiment [14] deals with Stellaria media. Description: Post-emergence herbicidal action against STEME. As for the experimental part:
as §1

In experiment [15] the test system is Hordeum murinum. The experiment can be described thus: Post-emergence herbicidal action against HORMU. On the procedure:
as §1

`CC(C)SCCOC(=O)C1C=CC(NC(=O)C2(C)CC(c3cc(F)cc(F)c3)=NO2)C1` (stereo not shown) [Example I-10]: the “Herbicidal action against [%] ABUTH” value in experiment [1] (20 g a.i./ha) amounted to 90%. Besides, the “Herbicidal action against [%] ALOMY” value in [2] (20 g a.i./ha) came to 100%. Also, the “Herbicidal action against [%] DIGSA” value in experiment [3] (20 g a.i./ha) amounted to 90%. Besides, in [4] (20 g a.i./ha), the “Herbicidal action against [%] SETVI” value was 90%. The “Herbicidal action against [%] PHBPU” value in experiment [5] is recorded as 80%. Moreover, the “Herbicidal action against [%] LOLRI” value in experiment [6] (20 g a.i./ha) stood at 100%. The “Herbicidal action against [%] ECHCG” value in experiment [7] (20 g a.i./ha) came out at 90%. For the same molecule, the “Herbicidal action against [%] AVEFA” value in experiment [8] (20 g a.i./ha) was 90%. The “Herbicidal action against [%] POLCO” value in [9] (20 g a.i./ha) is listed as 90%. Also, the “Herbicidal action against [%] VERPE” value in experiment [10] (20 g a.i./ha) worked out at 90%. In experiment [11] (20 g a.i./ha), the “Herbicidal action against [%] AMARE” value is reported as 90%. Besides, the “Herbicidal action against [%] MATIN” value in experiment [12] is on record as 80%.
As to `CSCCOC(=O)C1C=CC(NC(=O)C2(C)CC(c3cccc(C#N)c3)=NO2)C1` (stereo not shown) [Example I-40], in [13] (20 g a.i./ha), the “Herbicidal action against [%] VIOTR” value was found to be 80%. The “Herbicidal action against [%] ABUTH” value in experiment [1] (20 g a.i./ha) and in [1] (80 g a.i./ha) was 80% each time. In addition, the “Herbicidal action against [%] ALOMY” value in [2] (80 g a.i./ha) stood at 80%. For the same molecule, in [3] (80 g a.i./ha), the “Herbicidal action against [%] DIGSA” value was determined as 80%. In addition, the “Herbicidal action against [%] LOLRI” value in experiment [6] (20 g a.i./ha) and in [6] (80 g a.i./ha) was 80% throughout. Also, the “Herbicidal action against [%] ECHCG” value in [7] (20 g a.i./ha) and in [7] (80 g a.i./ha) was 80% each time. For the same molecule, the “Herbicidal action against [%] VERPE” value in experiment [10] (20 g a.i./ha) and in experiment [10] (80 g a.i./ha) was 80% throughout. Moreover, the “Herbicidal action against [%] STEME” value in [14] (20 g a.i./ha) and in [14] (80 g a.i./ha) was 80% throughout.
On to `CC(C)CSCCOC(=O)C1C=CC(NC(=O)C2(C)CC(c3cc(F)cc(F)c3)=NO2)C1` (stereo not shown) [Example I-08], for which, in experiment [1] (20 g a.i./ha), the “Herbicidal action against [%] ABUTH” value is 90%. For the same molecule, the “Herbicidal action against [%] ALOMY” value in [2] (20 g a.i./ha) stood at 100%. Further, the “Herbicidal action against [%] DIGSA” value in [3] (20 g a.i./ha) is 90%. Besides, the “Herbicidal action against [%] SETVI” value in experiment [4] (20 g a.i./ha) is on record as 90%. Besides, in [5], the “Herbicidal action against [%] PHBPU” value came out at 90%. Besides, the “Herbicidal action against [%] LOLRI” value in experiment [6] (20 g a.i./ha) was 90%. In addition, the “Herbicidal action against [%] ECHCG” value in experiment [7] (20 g a.i./ha) is on record as 90%. Besides, the “Herbicidal action against [%] AVEFA” value in experiment [8] (20 g a.i./ha) turned out to be 90%. Besides, in experiment [9] (20 g a.i./ha), the “Herbicidal action against [%] POLCO” value turned out to be 90%. In addition, in [10] (20 g a.i./ha), the “Herbicidal action against [%] VERPE” value is listed as 80%. In addition, the “Herbicidal action against [%] AMARE” value in experiment [11] (20 g a.i./ha) was determined as 90%. The “Herbicidal action against [%] MATIN” value in [12] amounted to 80%.
As for `CSCCOC(=O)C1C=CC(NC(=O)C2(C3CC3)CC(c3cc(F)cc(F)c3)=NO2)C1` (stereo not shown) [Example I-30], in experiment [13] (80 g a.i./ha), the “Herbicidal action against [%] VIOTR” value amounted to 80%. Further, the “Herbicidal action against [%] ALOMY” value in experiment [2] (80 g a.i./ha) amounted to 90%. The “Herbicidal action against [%] DIGSA” value is recorded as 80% in experiment [3] (20 g a.i./ha) and 90% in experiment [3] (80 g a.i./ha). The “Herbicidal action against [%] HORMU” value in experiment [15] (20 g a.i./ha) and in [15] (80 g a.i./ha) was 90% in each case. Moreover, the “Herbicidal action against [%] SETVI” value in experiment [4] (80 g a.i./ha) was found to be 80%. Besides, the “Herbicidal action against [%] LOLRI” value in experiment [6] (20 g a.i./ha) and in [6] (80 g a.i./ha) was 90% in each case. For the same molecule, the “Herbicidal action against [%] AVEFA” value in experiment [8] (20 g a.i./ha) and in [8] (80 g a.i./ha) was 90% throughout. Also, the “Herbicidal action against [%] POLCO” value in experiment [9] (80 g a.i./ha) was 80%. Besides, the entries for the “Herbicidal action against [%] VERPE” value in experiment [10] (20 g a.i./ha) and in [10] (80 g a.i./ha) were 80% and 90%, respectively. In addition, the “Herbicidal action against [%] AMARE” value in experiment [11] (80 g a.i./ha, visual rating about 3 weeks after treatment) is on record as 80%.
With `CCSCCOC(=O)C1C=CC(NC(=O)C2(C)CC(c3cc(F)cc(F)c3)=NO2)C1` (stereo not shown) [Example I-02], in experiment [1] (20 g a.i./ha), the “Herbicidal action against [%] ABUTH” value was determined as 90%. In addition, the “Herbicidal action against [%] ALOMY” value in experiment [2] (20 g a.i./ha) is 100%. Besides, the “Herbicidal action against [%] DIGSA” value in experiment [3] (20 g a.i./ha) was 90%. Also, the “Herbicidal action against [%] SETVI” value in [4] (20 g a.i./ha) is given as 90%. Moreover, the “Herbicidal action against [%] PHBPU” value in [5] was 80%. Further, in [6] (20 g a.i./ha), the “Herbicidal action against [%] LOLRI” value is listed as 90%. The “Herbicidal action against [%] ECHCG” value in [7] (20 g a.i./ha) stood at 90%. In [8] (20 g a.i./ha), the “Herbicidal action against [%] AVEFA” value is 90%. In addition, in experiment [9] (20 g a.i./ha), the “Herbicidal action against [%] POLCO” value stood at 90%. Further, in experiment [10] (20 g a.i./ha), the “Herbicidal action against [%] VERPE” value is listed as 90%. The “Herbicidal action against [%] AMARE” value in experiment [11] (20 g a.i./ha) is 90%. The “Herbicidal action against [%] MATIN” value in experiment [12] worked out at 80%.
